Test results as given in patent US20150105252A1, “SUBSTITUTED PYRAZOLES AS HERBICIDES” (E I DU PONT DE NEMOURS AND COMPANY, priority 2013, published 2015).

Legend:
wheat [1] = test: Test A preemergence; type: in vivo, Triticum aestivum
Summary of the method: (§1)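 Greenhouse test in loam soil/sand blend; compounds formulated in non-phytotoxic solvent with surfactant, applied as preemergence directed soil spray or postemergence to plants 2–10 cm tall at one- to two-leaf stage. Injury rated visually versus untreated controls after approximately 10 days on a 0 (no effect) to 100 (complete control) scale.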

barnyardgrass [2] = test: Test C flooded paddy test; type: in vivo, Echinochloa crus-galli; details: Flood
Excerpt: (§2) At time of treatment, test pots were flooded to 3 cm above the soil surface, treated by application of test compounds directly to the paddy water, and then maintained at that water depth for the duration of the test. Treated plants and controls were maintained in a greenhouse for 13 to 15 days, after which time all species were compared to controls and visually evaluated. […] A dash (-) response means no test result.

crabgrass, large [3] = test: Test A preemergence; type: in vivo, Digitaria sanguinalis
Summary of the method: as §1

barnyardgrass [4] = test: Test A preemergence; type: in vivo, Echinochloa crus-galli
Summary of the method: as §1

barnyardgrass [5] = test: Test A postemergence; type: in vivo, Echinochloa crus-galli; details: Postemergence
Summary of the method: as §1

velvetleaf [6] = test: Test A postemergence; type: in vivo, Abutilon theophrasti; details: Postemergence
Summary of the method: as §1

foxtail, giant [7] = test: Test A preemergence; type: in vivo, Setaria faberii
Summary of the method: as §1

pigweed [8] = test: Test A postemergence; type: in vivo, Amaranthus retroflexus; details: Postemergence
Summary of the method: as §1

pigweed [9] = test: Test A preemergence; type: in vivo, Amaranthus retroflexus
Summary of the method: as §1

foxtail, giant [10] = test: Test A postemergence; type: in vivo, Setaria faberii; details: Postemergence
Summary of the method: as §1

velvetleaf [11] = test: Test A preemergence; type: in vivo, Abutilon theophrasti
Summary of the method: as §1

corn [12] = test: Test A preemergence; type: in vivo, Zea mays
Summary of the method: as §1

crabgrass, large [13] = test: Test A postemergence; type: in vivo, Digitaria sanguinalis; details: Postemergence
Summary of the method: as §1

corn [14] = test: Test A postemergence; type: in vivo, Zea mays; details: Postemergence
Summary of the method: as §1

morningglory [15] = test: Test A postemergence; type: in vivo, Ipomoea spp.; details: Postemergence
Summary of the method: as §1

rice [16] = test: Test C flooded paddy test; type: in vivo, Oryza sativa; details: Flood
Excerpt: as §2

sedge, umbrella [17] = test: Test C flooded paddy test; type: in vivo, Cyperus difformis; details: Flood
Excerpt: as §2

wheat [18] = test: Test A postemergence; type: in vivo, Triticum aestivum; details: Postemergence
Summary of the method: as §1

morningglory [19] = test: Test A preemergence; type: in vivo, Ipomoea spp.
Summary of the method: as §1

barnyardgrass [20] = test: Test B flood; type: in vivo, Echinochloa crus-galli; details: 250 g ai/ha, visual rating on 0 to 100 scale (0 no effect, 100 complete control), 13 to 15 days
Summary of the method: (§3)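 Visual ratings on a 0–100 scale, where 0 means no effect and 100 means complete control, were assigned by comparison with controls 13 to 15 days after treatment. Compounds went into paddy water over 2-leaf plants flooded to 3 cm.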

rice [21] = test: Test B flood; type: in vivo, Oryza sativa; details: 250 g ai/ha, visual rating on 0 to 100 scale (0 no effect, 100 complete control), 13 to 15 days
Summary of the method: as §3

ducksalad = test: Test B flood; type: in vivo, Heteranthera limosa; details: 250 g ai/ha, visual rating on 0 to 100 scale (0 no effect, 100 complete control), 13 to 15 days
Summary of the method: as §3

sedge, umbrella [22] = test: Test B flood; type: in vivo, Cyperus difformis; details: 250 g ai/ha, visual rating on 0 to 100 scale (0 no effect, 100 complete control), 13 to 15 days
Summary of the method: as §3

[23] = Preemergence, 1000 g ai/ha, 0 to 100 scale, 0 no effect, 100 complete control
[24] = 31 g ai/ha, scale 0 to 100 (0 no effect, 100 complete control)
[25] = 62 g ai/ha, scale 0 to 100 (0 no effect, 100 complete control)
[26] = 1000 g ai/ha, visual rating after approx. 10 days, 0 to 100 scale (0 no effect, 100 complete control)
[27] = preemergence, 125 g ai/ha, visual injury approx. 10 days after treatment
[28] = preemergence, 500 g ai/ha, visual injury after approx. 10 days, 0 to 100 scale (0 no effect, 100 complete control)
[29] = 125 g ai/ha, 0 to 100 scale, 0 no effect, 100 complete control
[30] = 500 g ai/ha, 0 to 100 scale (0 no effect, 100 complete control)

For `CCCc1cc(C(=O)NCC(F)(F)F)nn1Cc1cccc(C(F)(F)F)c1` [Compound 31], the “Wheat plant response rating” value (wheat [1]; [23]) was 10, the “Plant response rating, Barnyardgrass” value (barnyardgrass [2]; [24]) was 0 and the “Plant response rating, Barnyardgrass” value (barnyardgrass [2]; [25]) was 0. For the same compound, the “Plant response rating, Barnyardgrass” value (barnyardgrass [2]; 125 g ai/ha, scale 0 to 100) was 0, the “Plant response rating, Barnyardgrass” value (barnyardgrass [2]; 250 g ai/ha, scale 0 to 100) was 20 and the “Crabgrass, Large plant response rating” value (crabgrass, large [3]; [23]) was 100. For the same compound, the “Barnyardgrass plant response rating” value (barnyardgrass [4]; [23]) was 50, the “Barnyardgrass plant response rating” value (barnyardgrass [5]; [26]) was 60 and the “Velvetleaf plant response rating” value (velvetleaf [6]; [26]) was 100. For the same compound, the “Foxtail, Giant plant response rating” value (foxtail, giant [7]; [23]) was 100, the “Pigweed plant response rating” value (pigweed [8]; [26]) was 100 and the “Pigweed plant response rating” value (pigweed [9]; [23]) was 90. For the same compound, the “Foxtail, Giant plant response rating” value (foxtail, giant [10]; [26]) was 70, the “Velvetleaf plant response rating” value (velvetleaf [11]; [23]) was 50 and the “Corn plant response rating” value (corn [12]; [23]) was 10. For the same compound, the “Crabgrass, Large plant response rating” value (crabgrass, large [13]; [26]) was 60, the “Corn plant response rating” value (corn [14]; [26]) was 20 and the “Morningglory plant response rating” value (morningglory [15]; [26]) was 100. For the same compound, the “Plant response rating, Rice” value (rice [16]; [24]) was 0, the “Plant response rating, Rice” value (rice [16]; [25]) was 0 and the “Plant response rating, Rice” value (rice [16]; 125 g ai/ha, scale 0 to 100) was 0. The “Plant response rating, Rice” value (rice [16]; 250 g ai/ha, scale 0 to 100) was 15, the “Plant response rating, Sedge, Umbrella” value (sedge, umbrella [17]; [24]) was 30 and the “Plant response rating, Sedge, Umbrella” value (sedge, umbrella [17]; [25]) was 70. For the same compound, the “Plant response rating, Sedge, Umbrella” value (sedge, umbrella [17]; 125 g ai/ha, scale 0 to 100) was 85, the “Plant response rating, Sedge, Umbrella” value (sedge, umbrella [17]; 250 g ai/ha, scale 0 to 100) was 85 and the “Wheat plant response rating” value (wheat [18]; [26]) was 30. The “Morningglory plant response rating” value (morningglory [19]; [23]) was 40.

With `CCc1cc(C(=O)NCC(F)(F)F)nn1Oc1cccc(OC(F)(F)F)c1` [Compound 221] the “Wheat plant response rating (0 to 100 scale)” value (wheat [1]; [27]) was 0, the “Plant response rating, Barnyardgrass” value (barnyardgrass [20]) was 0 and the “Crabgrass, Large plant response rating (0 to 100 scale)” value (crabgrass, large [3]; [27]) was 10. For the same compound, the “Crabgrass, Large plant response rating” value (crabgrass, large [3]; [28]) was 90, the “Barnyardgrass plant response rating (0 to 100 scale, 0 is no effect, 100 is complete control)” value (barnyardgrass [4]; [27]) was 0 and the “Barnyardgrass plant response rating” value (barnyardgrass [4]; [28]) was 10. The “Plant response rating, Rice” value (rice [21]) was 0, the “Plant response rating, Ducksalad” value (ducksalad) was 0 and the “Barnyardgrass plant response rating” value (barnyardgrass [5]; [29]) was 10. The “Barnyardgrass plant response rating” value (barnyardgrass [5]; [30]) was 10, the “Velvetleaf plant response rating” value (velvetleaf [6]; [29]) was 0 and the “Velvetleaf plant response rating” value (velvetleaf [6]; [30]) was 20. The “Foxtail, Giant plant response rating (0 to 100 scale)” value (foxtail, giant [7]; [27]) was 0, the “Foxtail, Giant plant response rating” value (foxtail, giant [7]; [28]) was 40 and the “Pigweed plant response rating” value (pigweed [8]; [29]) was 20. For the same compound, the “Pigweed plant response rating” value (pigweed [8]; [30]) was 60, the “Pigweed plant response rating (0 to 100 scale)” value (pigweed [9]; [27]) was 0 and the “Foxtail, Giant plant response rating” value (foxtail, giant [10]; [29]) was 10. For the same compound, the “Foxtail, Giant plant response rating” value (foxtail, giant [10]; [30]) was 30, the “Velvetleaf plant response rating (0 to 100 scale)” value (velvetleaf [11]; [27]) was 0 and the “Corn plant response rating (0 to 100 scale)” value (corn [12]; [27]) was 0. The “Corn plant response rating” value (corn [12]; [28]) was 0, the “Crabgrass, Large plant response rating” value (crabgrass, large [13]; [29]) was 10 and the “Crabgrass, Large plant response rating” value (crabgrass, large [13]; [30]) was 30. For the same compound, the “Corn plant response rating” value (corn [14]; [29]) was 10, the “Corn plant response rating” value (corn [14]; [30]) was 20 and the “Morningglory plant response rating” value (morningglory [15]; [29]) was 30. For the same compound, the “Morningglory plant response rating” value (morningglory [15]; [30]) was 80, the “Plant response rating, Sedge, Umbrella” value (sedge, umbrella [22]) was 0 and the “Wheat plant response rating” value (wheat [18]; [29]) was 0. For the same compound, the “Wheat plant response rating” value (wheat [18]; [30]) was 10 and the “Morningglory plant response rating (0 to 100 scale)” value (morningglory [19]; [27]) was 0.
